Results on 2 compounds are retold here after patent publication US20220040160A1, “COMBINATION OF HISTONE DEACETYLASE INHIBITOR AND IMMUNOTHERAPY” (The United States of America,as represented by the …, priority 2016, published 2022).

Data set [1] deals with LNCaP prostate carcinoma cells. Put plainly: Antigen-specific CTL lysis, overnight 111In-release assay. The format is cell-based, human. The note with it: E:T=30:1. As to the method: (§1) Vorinostat and entinostat were obtained from Selleck Chemicals. Adherent tumor cells in log-growth phase were exposed daily to vehicle (DMSO) or vorinostat at the indicated concentrations for 5 h, over 4 consecutive days. At the end of each treatment, cells were washed in fresh medium and returned to incubation at 37° C. with 5% CO2. Alternatively, cells were continuously exposed to vehicle (DMSO) or entinostat at the indicated concentrations for 72 h.
(§2) Carcinoembryonic antigen (CEA)-specific CTLs recognize the CEA peptide epitope […] (CAP-1) (SEQ ID NO: 1) (Tsang et al., J. Natl. Cancer Inst., 87(13): 982-990 (1995)). Prostate-specific antigen (PSA)-specific CTLs recognize the PSA peptide epitope […] (SEQ ID NO: 2) (Correale et al., J. Natl. Cancer Inst., 89(4): 293-300 (1997)). The mucin-1 (MUC-1)-specific CD8^+ CTL line, designated MUC-1 CTL, recognizes the MUC-1 peptide epitope […] (SEQ ID NO: 3) (Tsang et al., Clin. Cancer Res., 10(6): 2139-2149 (2004)). Brachyury-specific CTLs recognize the brachyury peptide epitope […] (T-p2) (SEQ ID NO: 4) (Tucker et al., Cancer Immunol. Immunother., 63(12): 1307-1317 (2014)). All T-cell lines were HLA-A2-restricted.
Carcinoma cells exposed to vorinostat, entinostat, or vehicle (DMSO) were labeled with ^111In prior to being used as targets for direct lysis by effector CTLs at an effector-to-target ratio of 30:1 in a standard overnight cytotoxicity ^111In-release assay (Gameiro et al., Oncoimmunology, 3: e28643 (2014)).
The effect of clinically relevant vorinostat exposure on prostate and breast carcinoma cells' sensitivity to antigen-specific CTL-mediated lysis was examined. LNCaP and MDA-MB-231 were exposed to vorinostat or to vehicle as before, prior to being used as targets for antigen-specific CTL lysis, using CEA-, brachyury-, MUC-1-, or PSA-specific CD8^+ T cells as effector cells.

The subject of data set [2] is ER stress response element (ERSE). Put plainly: Luciferase ER stress reporter assay in LNCaP clones. The format is cell-based, human. As to conditions: designated concentrations. On the procedure:
as §1

Data set [3] has as its system prostate and breast carcinoma cells. Kind of data set: NK cell mediated lysis of carcinoma cells. The format is cell-based, human. As to conditions: after clinically relevant exposure. On the procedure:
Human prostate (LNCaP), breast (MDA-MB-231), and lung (H460) carcinoma cells were exposed to vorinostat or vehicle (DMSO) and the percent lysis was determined. At the end of treatment, the cells were used as targets in a lysis assay wherein NK cells isolated from human PBMCs were used as effectors (varying E:T ratios as indicated in FIG. 7).

Data set [4] relates to non-small cell lung cancer (NSCLC). The note with it: entinostat given with the DNMT inhibitor azacitidine; subsequent therapies given immediately after epigenetic therapy; cited from earlier work.
The subject of data set [5] is HDAC enzymes (isoforms 1-11). Put plainly: HDAC activity assay (EpiQuik colorimetric kit) on nuclear extracts of treated carcinoma cells. The format is cell-based, human. The note with it: 1 or 3 μM, 5 h daily over 4 days, at 96 h, vs DMSO. As to the method: (§3) Vorinostat and entinostat were obtained from Selleck Chemicals.
Changes in the nuclear enzyme activity of HDAC isoforms 1-11 following vorinostat treatment of MDA-MB-231 and LNCaP cells were determined using the colorimetric EpiQuik HDAC Activity/Inhibition Assay Kit (Epigentek). Briefly, 10 μg of extracted nuclear HDAC proteins were incubated with acetylated HDAC substrate for 90 min at 37° C. HDAC deacetylated products were detected following sequential incubation with capture and detection antibodies, according to the manufacturer's specifications.
(§4) Therefore, the in vitro effect of clinically relevant exposure of human prostate (LNCaP) and breast (MDA-MB-231) carcinoma cells to vorinostat on the activity of HDAC enzymes (isoforms 1-11), cellular proliferation, and viability was examined. Tumor cells were exposed daily for 5 h to 1 μM or 3 μM vorinostat, or vehicle (DMSO) over 4 consecutive days, mimicking the range of vorinostat exposure (Cmax, AUC) attained in cancer patients after oral once daily intake of 400 mg (Iwamoto et al., Cancer Chemother. Pharmacol., 72(3): 493-508 (2013)). […] Vorinostat concentration of 3 μM was used for all subsequent experiments.

In data set [6] the test system is LNCaP prostate carcinoma cells. Put plainly: Cell growth and viability, trypan blue count / Live-Dead flow cytometry. The format is cell-based. As to conditions: 1 or 3 μM, 5 h daily over 4 days. As to the method: as §1
(§5) Tumor cells were exposed to DMSO or vorinostat as described above. Cells were harvested daily and viable cells were counted by trypan blue exclusion using a Cellometer Auto T4 automated cell counter (Nexcelom Bioscience). Cellular viability was confirmed by flow cytometry using Live/Dead exclusion, according to manufacturer's instructions (Invitrogen).
as §4

In data set [7] the test system is MDA-MB-231 breast carcinoma cells. Described as above. The format is cell-based. As to conditions: 1 or 3 μM, 5 h daily over 4 days. As to the method: as §1, §5, §4
Data set [8] has the same test system. The note with it: brachyury-specific CTL, 3 μM. As to the method:
as §1
Carcinoembryonic antigen (CEA)-specific CTLs recognize the CEA peptide epitope […] (CAP-1) (SEQ ID NO: 1) (Tsang et al., J. Natl. Cancer Inst., 87(13): 982-990 (1995)). Prostate-specific antigen (PSA)-specific CTLs recognize the PSA peptide epitope […] (SEQ ID NO: 2) (Correale et al., J. Natl. Cancer Inst., 89(4): 293-300 (1997)). The mucin-1 (MUC-1)-specific CD8^+ CTL line, designated MUC-1 CTL, recognizes the MUC-1 peptide epitope […] (SEQ ID NO: 3) (Tsang et al., Clin. Cancer Res., 10(6): 2139-2149 (2004)). Brachyury-specific CTLs recognize the brachyury peptide epitope […] […]
Silencer® siRNA and negative control siRNA were used to silence HDAC1, ERN1, and PERK in MDA-MB-231 carcinoma cells, according to the manufacturer's instructions (Life Technologies). […] Detection and quantification of band intensity were performed with the Odyssey Infrared Imaging System (LI-COR Biotechnology). […]

Data set [9] deals with HLA-A2 negative AsPC-1 pancreatic carcinoma cells. Kind of data set: Antigen-specific CTL lysis, HLA-restriction control. The format is cell-based, human. As to conditions: cells exposed to vehicle or vorinostat 3 μM. On the procedure: as §1
as §2, with “HLA-A2-restricted. […]” for “HLA-A2-restricted.”

Data set [10] deals with antigen processing machinery (APM) components. Kind of data set: Flow cytometry of APM components and surface markers in MDA-MB-231 cells. The format is cell-based, human. As to the method:
as §3
Cell-surface and intracytoplasmic staining was performed as previously described (Ogino et al., J. Immunol. Methods, 278(1-2): 33-44 (2003)). Surface staining of tumor cells was performed using the primary labeled monoclonal antibodies HLA-A2-FITC, ICAM-1 (CD54)-PE, CEA (CD66)-FITC, MUC-1 (CD227)-FITC, and the appropriate isotype-matched controls (BD Biosciences). For intracellular analysis of antigen processing machinery (APM) components, mouse IgG1 (MK2-23) isotype control, LMP2 (SY-1)-, LMP7 (HB2)-, TAP-1 (NOB1)-, calnexin (TO-5)-, β2-microglobulin (L368), and tapasin (TO-3)-specific monoclonal antibodies were developed and characterized as described (Bandoh et al., Tissue Antigens, 66(3): 185-194 (2005); Ogino et al., Tissue Antigens, 62(5): 385-393 (2003); and Wang et al., J. Immunol. Methods, 299(1-2): 139-151 (2005)). Cellular fluorescence of 3×10^4 cells was examined on a FACSCalibur flow cytometer using CellQuest software (BD Biosciences).
CTL killing of tumor targets requires T-cell recognition of specific major histocompatibility complex (MHC) Class I/CD8^+ restricted epitope complexes on the surface of tumor cells, an event determined by the cooperative interactions of multiple APM components. […] To test this hypothesis, MDA-MB-231 carcinoma cells were exposed to vorinostat or to vehicle as before. At the end of treatment, cells were examined by flow cytometry for intracellular expression of 6 APM components (FIG. 3).

Data set [11] has as its system H460 lung carcinoma cells. Put plainly: Avelumab (anti-PD-L1) mediated ADCC with NK effectors. The format is cell-based, human. The note with it: 3 μM, 5 h daily, 4 days, anti-PD-L1 vs isotype control. As to the method:
Lung (H460) and pancreatic (AsPC-1) carcinoma cells were exposed daily for 5 h to vorinostat (3 uM, black circles and bars) or DMSO (open circles and bars) for 4 consecutive days prior to being used as targets PDL-1-mediated ADCC. Upper panel: cell-surface expression of PDL1 in carcinoma targets. Middle panel: NK lysis in the presence of anti-PDL1 or isotype control Ab. Lower panel: H460 lysis in the presence of anti-PDL1 or isotype control antibodies using NK effector cells pre-incubated with anti-CD16 mAb. Results are presented as mean±S.E.M. from 3 replicate wells and are representative of 2-4 independent experiments. Asterisks denote statistical significance relative to controls (2-way ANOVA).
Human lung (H460) carcinoma cells were exposed to vorinostat and isotype control, anti-CD16, or anti-PD-L1 (avelumab).

The mark [12] stands for this setting: MDA-MB-231, 3 μM, 96 h, intracellular flow cytometry.

Take `Nc1ccccc1NC(=O)c1ccc(CNC(=O)OCc2cccnc2)cc1` [entinostat]: the “sensitivity to CTL-mediated killing (PSA-specific CTL)” value in data set [1] (entinostat 500 nM, similar to vorinostat 3 μM, P<0.05) is given as “increased sensitivity”. For the same compound, the “activation of ERSE (firefly/renilla luciferase ratio normalized to DMSO)” value in [2] (entinostat continuous exposure 72 h) is on record as “activated ERSE in an exposure-dependent manner”. Besides, the “sensitivity to NK cell mediated lysis in vitro” value in [3] is “more sensitive”. The “patients with major objective responses to subsequent anticancer therapies” value in data set [4] is on record as 4 out of 19.

Turning to `O=C(CCCCCCC(=O)Nc1ccccc1)NO` [vorinostat], in data set [5] (LNCaP prostate carcinoma cells, P=0.0006), the HDAC activity entry is “significantly decreased”. In addition, in data set [5] (MDA-MB-231 breast carcinoma cells, P=0.0046), the HDAC activity entry is “significantly decreased”. The cellular viability result in data set [6] (at 96 h) is reported as “no significant effect”. Also, the cellular proliferation result in [6] (vs vehicle, P<0.0001) is recorded as “significantly decreased”. In addition, in [7] (at 96 h), the cellular viability result is given as “no significant effect”. The cellular proliferation entry in data set [7] (vs vehicle, P<0.0001) is “significantly decreased”. In [1] (3 μM, 5 h daily, 4 days, P<0.0001), the “sensitivity to CTL-mediated lysis targeting MUC-1” value was “significantly more sensitive”. Further, the “sensitivity to CTL-mediated lysis targeting brachyury” value in data set [1] (3 μM, 5 h daily, 4 days, P=0.0004) is recorded as “significantly more sensitive”. Moreover, the “sensitivity to CTL-mediated lysis targeting PSA” value in data set [1] (3 μM, 5 h daily, 4 days, P=0.0011) is “significantly more sensitive”. Moreover, the “sensitivity to CTL-mediated lysis targeting CEA” value in [1] (3 μM, 5 h daily, 4 days, P=0.002) is recorded as “significantly more sensitive”. In addition, the “CTL lysis relative to vehicle control” value in data set [8] (HDAC1-silenced cells) is reported as “did not further increase”. Besides, in [8] (control siRNA, E:T 30:1, P=0.0024), the “increase in CTL sensitivity relative to vehicle controls” value was found to be 2 fold. Besides, the “CTL lysis of HLA-A2 negative targets” value in [9] is recorded as “absence of significant lysis”. In addition, in [10] (setting [12]), the “increase in Tapasin expression” value is recorded as 22%, the “increase in expression of LMP2” value is on record as at least 25%, the “increase in expression of LMP7” value is at least 25% and the “increase in expression of TAP1” value was at least 25%. In addition, in data set [10] (setting [12]), the “increase in expression of calnexin” value is at least 25% and the “increase in expression of β2-microglobulin” value is on record as at least 25%. In [10] (upon exposure to vorinostat), the “expression of CEA on the surface of tumor cells” value was “Increased expression”, the “expression of HLA class I antigens on the surface of tumor cells” value is “Increased expression”, the “expression of ICAM-1 on the surface of tumor cells” value is listed as “Increased expression” and the “expression of MUC-1 on the surface of tumor cells” value is given as “Increased expression”. Also, in [2] (vorinostat 5 h daily for 4 days), the “activation of ERSE (firefly/renilla luciferase ratio normalized to DMSO)” value is “activated ERSE in a dose-dependent manner”. In [3], the “sensitivity to NK cell mediated lysis in vitro” value is given as “more sensitive”. In addition, the “avelumab-mediated ADCC” value in data set [11] was “increases”.
